Reference: patent publication US9896470B2, “Enhancing the stability and purity and increasing the bioavailability of human milk oligosaccharides or precursors or blends thereof” (Glycom A/S, priority 2012, dated 2018)

Experiments:
Assay type in all cases: physicochemical
[1] = Shelf life of spray-dried material on storage; details: below 40° C. storage temperature
[2] = Stability test after two months (40° C., rel. humidity 75%)
Protocol: 75% of the methanol present in the feed solution was removed. […] Tg: 83.9° C.

[3] = Calorimetric (DSC) determination of glass transition temperature of the amorphous samples; details: for Tg (glass transition temperature): Perkin Elmer DSC-7, heating rate 10° C./min, spray-dried amorphous sample; for storage temperature limit suggested by Tg: spray-dried amorphous material
Protocol: The calorimetric experiments to determine the glass transition temperature of the amorphous samples were carried out using Perkin Elmer DSC-7 at a heating rate of 10° C./min; the samples (5-7 mg) were placed in open aluminium crucibles.

Structure (SMILES) | shelf life [1] | stability test: changes in analytical data and powder X-ray diagram [2] | Tg (glass transition temperature) [3] [°C] | storage temperature limit suggested by Tg [3]
C[C@@H]1OC(O[C@H]2[C@H](O[C@H]3[C@H](O)[C@@H](O)C(O)O[C@@H]3CO)O[C@H](CO)[C@H](O)[C@@H]2O)[C@@H](O)[C@H](O)[C@@H]1O (some centres unmarked) [spray-dried 2′-FL, 2′-O-fucosyllactose] | excellent shelf life | no changes in the analytical data and powder X-ray diagram | 83.9 | around 60 °C
CC(=O)N[C@H]1[C@H]([C@H](O)[C@H](O)CO)O[C@@](OC[C@H]2O[C@@H](O[C@H]3[C@H](O)[C@@H](O)[C@H](O)O[C@@H]3CO)[C@H](O)[C@@H](O)[C@H]2O)(C(=O)O)C[C@@H]1O [spray-dried 6′-SL, 6′-O-sialyllactose] | excellent shelf life |  | 84.0 | around 60 °C
CC(=O)N[C@H]1[C@H](O[C@H]2[C@@H](O)[C@@H](CO)O[C@@H](O[C@H]3[C@H](O)[C@@H](O)C(O)O[C@@H]3CO)[C@@H]2O)O[C@H](CO)[C@@H](O[C@@H]2O[C@H](CO)[C@H](O)[C@H](O)[C@H]2O)[C@@H]1O (mixture of isomers) [spray-dried LNnT, Lacto-N-neotetraose] | excellent shelf life | no changes in the analytical data and powder X-ray diagram | 81.6 | around 60 °C
